Test [1] has as its target T1, Human tissue plasminogen activator (tPA) (Two chains, Sigma) (Homo sapiens, UniProt P00750).
T1 construct: purchased Sigma
Description: In vitro chromogenic assay for tissue plasminogen activator (cleavage of peptide p-nitroanilide S2288). The test is classed as biochemical. The conditions noted are these: substrate concentration stated equal to its Km under the assay conditions; 10 nM tPA, pH 7.5, ambient temperature. As to the method:
(§1) The activities were determined as an initial rate of cleavage of the peptide p-nitroanilide by the enzyme. The cleavage product, p-nitroaniline, absorbs at 405 nm with a molar extinction coefficient of 9920 M^-1 cm^-1.
(§2) 50 mM TrisHCl, 150 mM NaCl, 2.5 mM CaCl2, and 0.1% polyethylene glycol 6000, pH 7.5.
3. Human tissue plasminogen activator (tPA) (Two chains, Sigma) stock solution: 1 mg/mL, stored at -80° C. (working solution (2×): 1361 ng/mL in assay buffer, prepare prior to use).
3. S2288 (tPA assay) stock solution: 10 mM in dH2 O, stored at 4° C. (working solution (4×): 1484 μM in assay buffer).
Assays were performed in 96-well microtiter plates in a total volume of 200 μl. […] Concentrations of the standard inhibitor compound in the assay were from 5 μM to 0.021 μM in 1 to 3 dilution. Concentration of the test compounds in the assay typically were from 10 μM to 0.041 μM in 1 to 3 dilution. For potent test compounds, the concentrations used in the factor Xa assay were further diluted 100 fold (100 nM to […]) or 1000 fold (10 nM to 0.041 nM). All substrate concentrations used are equal to their Km values under the present assay conditions. Assays were performed at ambient temperature. […]
(§3) The enzyme kinetics were measured at 405 nm at 10 seconds intervals for five minutes in a THERMOmax plate reader at ambient temperature.

Test [2] addresses T2, Human thrombin (Homo sapiens, UniProt P00734).
T2 construct: Human thrombin stock solution; purchased Enzyme Research Lab
In words: In vitro chromogenic assay for thrombin (cleavage of peptide p-nitroanilide S2302). Type of test: biochemical. The conditions noted are these: substrate concentration stated equal to its Km under the assay conditions; 20 nM thrombin, pH 7.5, ambient temperature. As to the method:
as §1, §2
2. Human thrombin stock solution: Stored at -80° C. (working solution (2×): 1200 ng/mL or 40 nM in assay buffer, prepare prior to use).
2. S2302 (Thrombin assay) stock solution: 10 mM in dH2 O, stored at 4° C. (working solution (4×): 1200 μM in assay buffer).
Assays were performed in 96-well microtiter plates in a total volume of 200 μl. […] Concentrations of the standard inhibitor compound in the assay were from 5 μM to 0.021 μM in 1 to 3 dilution. Concentration of the test compounds in the assay typically were from 10 μM to 0.041 μM in 1 to 3 dilution. For potent test compounds, the concentrations used in the factor Xa assay were further diluted 100 fold (100 nM to […]) or 1000 fold (10 nM to 0.041 nM). […]
as §3
Enzyme rates were calculated as mOD/min based on the first two minutes readings. The IC50 values were determined by fitting the data to the log-logit equation (linear) or the Morrison equation (non-linear) with an EXCEL spread-sheet. […]

The structures appear in SMILES notation. Square brackets hold non-standard residues; d marks the D form. Peptide text beside a SMILES is read from it. * marks the point of attachment. pNA = O=[N+]([O-])c1ccc(N*)cc1

T1 sequence (P00750 311-562 limits assumed): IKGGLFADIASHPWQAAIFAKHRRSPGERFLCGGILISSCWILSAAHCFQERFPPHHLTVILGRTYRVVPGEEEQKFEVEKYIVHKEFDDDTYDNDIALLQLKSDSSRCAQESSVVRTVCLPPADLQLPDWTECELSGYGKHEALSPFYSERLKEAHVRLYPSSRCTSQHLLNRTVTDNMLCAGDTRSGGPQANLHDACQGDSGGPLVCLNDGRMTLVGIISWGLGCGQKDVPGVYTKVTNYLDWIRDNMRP
T1 sequence (P00750 36-310 partner limits assumed): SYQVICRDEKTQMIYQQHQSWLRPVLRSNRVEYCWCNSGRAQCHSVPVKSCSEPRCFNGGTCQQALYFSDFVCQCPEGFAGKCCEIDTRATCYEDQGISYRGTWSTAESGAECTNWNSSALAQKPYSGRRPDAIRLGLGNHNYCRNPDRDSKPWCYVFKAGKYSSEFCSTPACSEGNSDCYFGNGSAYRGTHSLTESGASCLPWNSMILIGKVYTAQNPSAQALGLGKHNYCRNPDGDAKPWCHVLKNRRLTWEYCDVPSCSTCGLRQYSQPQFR

One may read the Km as the substrate concentration at which the rate is half of its maximum. On to `CC[C@@H](C)[C@@H](N)C(=O)N1CCC[C@H]1C(=O)N[C@@H](CCCN=C(N)N)C(=O)Nc1ccc([N+](=O)[O-])cc1` [Example S2288] (H-[dI]-Pro-Arg-pNA), for which the Km in test [1] turned out to be 371 µM. For `N=C(N)NCCC[C@H](NC(=O)[C@H](Cc1ccccc1)NC(=O)[C@H]1CCCN1)C(=O)Nc1ccc([N+](=O)[O-])cc1` [Example S2302] (H-[dP]-Phe-Arg-pNA), the Km in test [2] was 300 µM.

The record behind these values is patent publication US5994375A, “Benzamidine derivatives substituted by amino acid and hydroxy acid derivatives and their use as anti-coagulants” (Berlex Laboratories, Inc., priority 1996, dated 1999).
